Assay results published in patent US20060264419A1 (priority 2003, published 2006).

What was measured:
5-HT2A receptors = 5-HT2A receptors (Rattus norvegicus, UniProt P14842); test: in-vitro affinity to 5-HT2A receptors, displacement of [3H]ketanserine (Example A1); type: binding; conditions: read-out: HT2A IC50
Text: The 5-HT2A receptors are exposed both to [^3H]ketanserine (a substance which is known for its affinity to the receptor) and also to the test compound. The decrease in the affinity of [^3H]ketanserine to the receptor is an indication of the affinity of the test substance to the 5-HT2A receptor.

5 HT2C receptor = target: T1, 5 HT2C receptor (Homo sapiens, UniProt P28335); test: affinity to the 5 HT2C receptor; type: binding
T1 sequence (P28335 33-458): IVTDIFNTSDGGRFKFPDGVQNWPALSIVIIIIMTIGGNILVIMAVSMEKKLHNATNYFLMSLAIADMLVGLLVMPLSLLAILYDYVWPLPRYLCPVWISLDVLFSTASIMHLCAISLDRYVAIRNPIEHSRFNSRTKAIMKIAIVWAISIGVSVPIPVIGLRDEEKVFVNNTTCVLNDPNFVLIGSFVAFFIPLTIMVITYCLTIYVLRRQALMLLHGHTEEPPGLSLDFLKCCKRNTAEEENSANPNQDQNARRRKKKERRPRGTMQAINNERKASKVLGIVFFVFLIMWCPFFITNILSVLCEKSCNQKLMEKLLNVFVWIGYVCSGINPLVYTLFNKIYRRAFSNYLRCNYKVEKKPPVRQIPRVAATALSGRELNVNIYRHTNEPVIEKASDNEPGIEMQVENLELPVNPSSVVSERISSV

Chain of 5-HT2A receptors (P14842 whole entry): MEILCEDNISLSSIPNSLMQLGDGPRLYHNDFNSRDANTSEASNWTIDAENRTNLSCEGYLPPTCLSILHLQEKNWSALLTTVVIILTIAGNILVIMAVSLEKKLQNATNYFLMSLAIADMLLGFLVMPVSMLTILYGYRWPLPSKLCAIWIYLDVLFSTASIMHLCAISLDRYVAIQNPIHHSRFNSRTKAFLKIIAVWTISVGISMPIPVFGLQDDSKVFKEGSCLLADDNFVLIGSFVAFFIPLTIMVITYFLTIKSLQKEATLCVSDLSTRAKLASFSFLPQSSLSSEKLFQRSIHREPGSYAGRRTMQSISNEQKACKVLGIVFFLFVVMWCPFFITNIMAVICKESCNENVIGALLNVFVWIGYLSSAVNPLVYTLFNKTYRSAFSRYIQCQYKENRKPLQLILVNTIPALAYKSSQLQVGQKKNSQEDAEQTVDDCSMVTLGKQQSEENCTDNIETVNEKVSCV

Compound	IC50 (5-HT2A receptors)	IC50 (5 HT2C receptor)
CN1CCN(Cc2cnn(-c3ccc(-c4cc(F)ccc4F)cc3)c2-c2ccccc2)CC1 [Example 981, 1-[1-(2′,5′-Difluorobiphenyl-4-yl)-5-phenyl-1H-pyrazol-4-ylmethyl]-4-methylpiperazine]	110 nM	1000 nM
CC(C)c1ccc(-n2ncc(CN3CCN(C)CC3)c2-c2ccccc2F)cc1 [Example 983, 1-[5-(2-Fluorophenyl)-1-(4-isopropylphenyl)-1H-pyrazol-4-ylmethyl]-4-methylpiperazine]	120 nM	520 nM
CN1CCN(Cc2cnn(-c3ccc(C(F)(F)F)cc3)c2-c2ccccc2F)CC1 [Example 990, 1-[5-(2-Fluorophenyl)-1-(4-trifluoro-methyl-phenyl)-1H-pyrazol-4-ylmethyl]-4-methyl-piperazine]	133 nM	490 nM
CC(C)N1CCN(Cc2cnn(-c3ccc(-c4ccc(F)cc4)cc3)c2-c2ccccc2Cl)CC1 [Example 997, 1-[5-(2-Chlorophenyl)-1-(4′-fluoro-biphenyl-4-yl)-1H-pyrazol-4-ylmethyl]-4-isopropylpiperazine]	160 nM	1000 nM
OC1CCN(Cc2cnn(-c3ccc(-c4ccc(F)cc4)cc3)c2-c2ccc(Cl)cc2)C1 (centres unmarked) [Example 1003, 1-[5-(4-Chlorophenyl)-1-(4′-fluoro-biphenyl-4-yl)-1H-pyrazol-4-ylmethyl]pyrrolidin-3-ol]	170 nM	1000 nM
CN1CCN(Cc2cnn(-c3ccc(-c4ccccc4F)cc3)c2-c2ccc(F)cc2)CC1 [Example 1013, 1-[1-(2′-Fluorobiphenyl-4-yl)-5-(4-fluoro-phenyl)-1H-pyrazol-4-ylmethyl]-4-methyl-piperazine]	210 nM	1000 nM
CCN(CC)Cc1cnn(-c2ccc(-c3ccc(F)cc3)cc2)c1-c1ccc(Cl)cc1 [Example 1016, [5-(4-Chlorophenyl)-1-(4′-fluoro-biphenyl-4-yl)-1H-pyrazol-4-ylmethyl]diethylamine]	220 nM	1000 nM
O=C(c1ccc(F)cc1)C1CCN(Cc2cnn(-c3ccc(-c4ccc(F)cc4)cc3)c2-c2ccccc2Cl)CC1 [Example 1019, 1-{1-{5-(2-Chlorophenyl)-1-(4′-fluoro-biphenyl-4-yl)-1H-pyrazol-4-ylmethyl]piperidin-4-yl}-1-(4-fluorophenyl)methanone]	230 nM	40 nM
CN1CCN(Cc2cnn(-c3ccc(-c4cc(F)ccc4F)cc3)c2-c2ccc(F)cc2)CC1 [Example 1021, 1-[1-(2′,5′-Difluorobiphenyl-4-yl)-5-(4-fluoro-phenyl)-1H-pyrazol-4-ylmethyl]-4-methyl-piperazine]	240 nM	1000 nM
Fc1ccccc1-c1c(CNc2ccon2)cnn1-c1ccc(-c2ccccc2)cc1 [Example 1022, [1-Biphenyl-4-yl-5-(2-fluorophenyl)-1H-pyrazol-4-ylmethyl]isoxazol-3-ylamine]	240 nM	1000 nM
CN(C)CCN(C)Cc1cnn(-c2ccc(-c3ccc(F)cc3)cc2)c1-c1ccc(Cl)cc1 [Example 1024, N-[5-(4-Chlorophenyl)-1-(4′-fluoro-biphenyl-4-yl)-1H-pyrazol-4-ylmethyl]-N,N′,N′-trimethyl-ethane-1,2-diamine]	240 nM	1000 nM
Fc1ccc(-c2ccc(-n3ncc(CN4CCN(C5CCCC5)CC4)c3-c3ccccc3Cl)cc2)cc1 [Example 1027, 1-[5-(2-Chlorophenyl)-1-(4′-fluoro-biphenyl-4-yl)-1H-pyrazol-4-ylmethyl]-4-cyclopentylpiperazine]	260 nM	1000 nM
CN1CCN(Cc2cnn(-c3ccc(OC(F)(F)F)cc3)c2-c2ccccc2F)CC1 [Example 1029, 1-[5-(2-Fluorophenyl)-1-(4-trifluoromethoxy-phenyl)-1H-pyrazol-4-ylmethyl]-4-methyl-piperazine]	270 nM	490 nM
CN1CCN(Cc2cnn(-c3ccc(-c4ccccc4)cc3)c2-c2cccnc2)CC1 [Example 1035, 1-(1-Biphenyl-4-yl-5-pyridin-3-yl-1H-pyrazol-4-ylmethyl)-4-methylpiperazine]	290 nM	1000 nM
CCN1CCN(Cc2cnn(-c3ccc(-c4ccc(F)cc4)cc3)c2-c2ccc(Cl)cc2)CC1 [Example 1037, 1-[5-(4-Chlorophenyl)-1-(4′-fluoro-biphenyl-4-yl)-1H-pyrazol-4-ylmethyl]-4-ethylpiperazine]	310 nM	1000 nM
O=C1NCN(c2ccccc2)C12CCN(Cc1cnn(-c3ccc(-c4ccccc4)cc3)c1-c1ccccc1F)CC2 [Example 1051, 8-[1-Biphenyl-4-yl-5-(2-fluorophenyl)-1H-pyrazol-4-ylmethyl]-1-phenyl-1,3,8-triaza-spiro[4.5]decan-4-one]	400 nM	1000 nM
CC(C)N1CCN(Cc2cnn(-c3ccc(-c4ccc(F)cc4)cc3)c2-c2ccc(Cl)cc2)CC1 [Example 1054, 1-[5-(4-Chlorophenyl)-1-(4′-fluoro-biphenyl-4-yl)-1H-pyrazol-4-ylmethyl]-4-isopropylpiperazine]	440 nM	1000 nM
COc1ccccc1-c1c(CN2CCN(C)CC2)cnn1-c1ccc(-c2ccsc2)cc1 [Example 1055, 1-[5-(2-Methoxyphenyl)-1-(4-thiophen-3-yl-phenyl)-1H-pyrazol-4-ylmethyl]-4-methyl-piperazine]	460 nM	300 nM
CN1CCN(Cc2cnn(-c3ccc(-c4ccc(F)cc4)cc3)c2-c2ccc(Cl)cc2)CC1 [Example 1057, 1-[5-(4-Chlorophenyl)-1-(4′-fluoro-biphenyl-4-yl)-1H-pyrazol-4-ylmethyl]-4-methylpiperazine]	460 nM	1000 nM
